Data reported in US6680025B2, “Device and method for photoactivation” (Cerus Corporation, priority 1989, dated 2004).

Key:
[1] = test system: tRNA; test: Photobinding of BIOMIP to tRNA, biotin detection (BluGene); format: binding; conditions: 100 μg/ml, irradiated 30 minutes CE-III; no signal from unirradiated controls
Description: This example describes photobinding of ^3H-AMIP, ^3H-AMDMIP and BIOMIP to RNA. A tRNA stock was prepared at a concentration of 765 μg/ml in 1×TE/10 mM NaCl. Appropriate amounts of each compound were prepared in separate reaction vessels such that upon addition of 200 μl of the tRNA solution (153 μg) the final concentration of each compound was 100 μg/ml. […] were used in the experiment; the BIOMIP used was unlabelled. Each reaction vessel was then irradiated for 30 minutes at 25° C. in the CE-III device. Identical unirradiated reaction mixtures were used as controls for each compound. Following irradiation, each mixture was extracted with CHCl3 (4×200 μl ) then precipitated (×2). The pellets were resuspended in 1×TE and the binding levels determined as follows. For the two labelled compounds (^3H-AMDMIP and ^3H-AMIP), the nucleic acid concentration was determined optically and radioactivity measured by scintillation counting of aliquots of the stock solutions. Binding of the compounds was then calculated to be as follows:
To determine if binding of BIOMIP to tRNA has occurred, it was necessary to use a non-radioactive format which detected the biotin moiety on the compound. A commercial kit (“BluGene”; BRL) was used for this purpose. The kit instructions were followed for detection of both the control DNA (supplied with the kit) and BIOMIP treated tRNA. […]

[2] = test system: PCR product (primer pair SK-38/39 analogs); test: Post-amplification sterilization with AMT; format: biochemical; conditions: AMT 100 μg/ml, irradiated CE-III; 10^4 to 10^10 copies carried over; 30 cycles
Description: A PCR sample is prepared for amplification with the following changes. Instead of AMDMIP, AMT is added prior to amplification at a concentration of 100 μg/ml. Instead of primer pair SK-38/39, the biotinylated analogs, in which biotin has been appended to the 5′ end of one or both primers via an intervening tetraethylenglycol bridge (ester linkage to the biotin), are used. Following 30 cycles of PCR, the reaction vessel is exposed to 300-400 nm light on the CE-III device. Following irradiation, the PCR reaction vessel is opened and the PCR product removed. Free primer is then removed by spinning the PCR reaction mix through a Centricon 100 (Amicon Division, W R Grace & Co., Danvers, Mass.). […] After immobilization, the PCR product is detected with a commercially available biotin detection systems (BluGene Detection System; catalog #8179 SA; BRL). […]
PCR reagents are added and the samples reamplified for 30 cycles, and α-^32P-dCTP is present during the amplification. Following PCR, the reamplified samples are analyzed by denaturing PAGE as described above.
In a third method, a solution of AMT (100 μg/ml) is prepared and irradiated for 15 minutes on the CE-III device. […] The mix is then amplified for 30 cycles in the presence of α-^32P-dCTP, then analyzed by PAGE, as above. […]

Compound	binding to tRNA by biotin detection [1]	reamplification of treated PCR product [2]
5-N-(N,N′-Dimethyl-(6-{biotinamido}-hexanoate)-1,6-hexanediamine])-methyl-isopsoralen [BIOMIP]	covalently bound to the tRNA	
Cc1oc2c(C)c3oc(=O)cc(C)c3cc2c1CN [AMT, 4′-aminomethyl-4,5′,8-trimethylpsoralen]		does not reamplify
